Reference: patent publication US10842892B2, “Methods and apparatus for synthesizing imaging agents, and intermediates thereof” (Lantheus Medical Imaging, Inc., priority 2010, dated 2020)
Values joined by “and” are separate entries in the source; they are usually repeats but may differ in a detail not shown here. Equal values may be shown once.

Legend:
heart wall = details: primate-derived estimates; cited from earlier work
myocardial blood flow = details: humans, assumed, equivalent to pre-clinical studies; cited from earlier work
healthy adults = assay: radiation dosimetry after single injection at rest (OLINDA/EXM, MIRD); format: in vivo, human
Procedure: This was a non-randomized, open-label, single-dose study. A total of 13 healthy adult subjects were enrolled and administered a single dose of imaging agent 1 at a single study center in the United States. Subjects were screened within 14 days prior to enrollment to confirm subject eligibility, and began baseline assessments at the study center the day before study drug administration. Subjects remained at the study center until completion of the Study Day 2 safety assessments (24±8 hours post-dose). A telephone call was made to study subjects 48±8 hours post-dose for adverse event (AE) monitoring. All subjects returned to the study center approximately one week (5-7 days) post-dose for a follow-up safety visit, and were contacted by telephone approximately 14-17 days post-dose for final serious AE monitoring.
On day 1, each subject received a 1-3 mL intravenous bolus injection of imaging agent 1 in a sterile solution of ≤5% ethanol containing ≤50 mg/mL sodium ascorbate in water, calculated to deliver approximately the target dose of imaging agent 1 at the time of injection. The dose was administered in less than 10 seconds, followed immediately by a 3-5 mL saline flush.
Dosimetry analyses. Estimates of radiation dosimetry for the standard organs of the adult male and female models and for the, salivary glands as well as the effective dose equivalent (EDE) (International Commission on Radiological Protection (ICRP), Recommendations of the International Commission on Radiological Protection, Publication 26. Ann ICRP. 1977; 1(3)) and the effective dose (ED) (International Commission on Radiological Protection (ICRP), 1990 Recommendations of the International Commission on Radiological Protection, 60. Ann ICRP. 1990; 21(1-3)) were determined using the OLINDA/EXM software (Stabin, M G, Sparks, R B, et al, OLINDA/EXM: the second-generation personal computer software for internal dose assessment in nuclear medicine.” J Nucl Med 2005 46(6):1023-7) Assessment of radiation dosimetry was based on the MIRD method, with data derived from imaging studies, using methods consistent with MIRD Pamphlet no. 16 (Siegel J A, Thomas S R, Stubbs J B, et al. MIRD pamphlet no. 16: Techniques for quantitative radiopharmaceutical biodistribution data acquisition and analysis for use in human radiation dose estimates. J Nucl Med. 1999 February; 40(2):37S-61S).
The attenuation corrected transverse image data slice planes were combined into a single three-dimensional image matrix for each subject and each time point using custom software. These images were then divided into 6 image sets (“anterior”, “posterior”, “salivary”, “thyroid”, “source”, and “full”) of combined coronal plane image data for each subject at each time point, grouping organs with similar anterior to posterior depths. This was done to optimize the ROI creation, and minimize background contribution to the organs contained in each combined coronal plane image. The “anterior” images contained stomach wall, heart wall, and urinary bladder. The “posterior” images contained kidneys, lumbar spine, and spleen (when visible). The “salivary” images contained the salivary glands (parotid and submandibular). The “thyroid” images contained the thyroid. The “full” images combined all of the coronal image planes that contained subject image data and was used for quantification of the brain and liver. The “source” images contained the calibration source.
Absolute radioactivity was determined by normalizing ROI sums by a calibration factor derived from the calibration source. Region counts were also adjusted for activity containing underlying and overlying tissue that was not part of the organ or tissue being quantified by utilization of background regions of interest. Total body region counts were also corrected for off body background counts. Appropriate normalization of region sizes for organ and adjacent regions were made. […]

[1] = system: stress induced myocardial perfusion abnormalities; assay: rest-stress imaging agent 1 PET versus Tc-99m Sestamibi SPECT MPI, single center; format: in vivo, human; details: myocardial segments supplied by diseased coronary arteries, 13 patients
Procedure: Thirteen patients, from a single center, underwent rest-stress Tc-99m Sestamibi SPECT MPI, rest-stress imaging agent 1 PET MPI and coronary angiography. In each patient, 17 myocardial segments were visually scored for rest and stress images by independent observers who were blinded to all other results. For each patient, summed stress scores (SSS), summed rest scores (SRS), and summed difference scores (SDS) were determined from segmental scores. Percent narrowing in each coronary artery was evaluated blindly and 70% luminal diameter narrowing was considered significant.

normal rats and dogs = details: cited from earlier work
[2] = system: coronary artery disease (CAD); assay: Phase 2 diagnostic performance for coronary artery disease, PET versus SPECT; format: in vivo, human
From the text: 143 patients (Pts) from 21 centers, presenting with a broad spectrum of CAD pre-test likelihoods, underwent rest-stress Tc-99m labeled SPECT MPI and imaging agent 1 PET MPI. […] Their mean age was 64.5 (range: 36-85) years and 68 were males. % narrowing in each coronary artery was quantified blindly. 52/84 Pts had significant CAD (≥50% luminal diameter narrowing) and 32/84 had insignificant CAD/normal coronary arteries. In each patient, 17 myocardial segments were visually scored on rest and stress images by 3 independent, blinded readers and majority rule interpretation was determined in each patient for both PET and SPECT studies. Diagnostic performance of PET was compared to that of SPECT using ROC analysis.

[3] = N = 12, Void Interval = 3.5 hours

Compound: CC(C)(C)n1ncc(OCc2ccc(COCC[18F])cc2)c(Cl)c1=O [imaging agent 1, 2-t-butyl-4-chloro-5-[4-(2-(^18F)fluoroethoxymethyl)-benzyloxy]-2H-pyridazin-3-1]
- estimated human radiation dose for the heart wall (heart wall): 0.067 mSv/MBq
- first pass extraction fraction (myocardial blood flow): 0.94
- mean ED (healthy adults; N = 12): 0.072 rem/mCi
- mean absorbed dose, heart wall (healthy adults; N = 12): 0.18 rem/mCi
- mean absorbed dose, kidneys (critical organ) (healthy adults; N = 12): 0.24 rem/mCi
- ED, Mean (healthy adults; [3]): 0.019 mSv/MBq and 1.9E−02 mSv/MBq
- EDE, Mean (healthy adults; [3]): 2.2E−02 mSv/MBq
- absorbed dose estimate, Mean, Brain (healthy adults; [3]): 2.5E−02 mSv/MBq
- absorbed dose estimate, Mean, Breasts (healthy adults; [3]): 8.8E−03 mSv/MBq
- absorbed dose estimate, Mean, Gallbladder Wall (healthy adults; [3]): 1.7E−02 mSv/MBq
- absorbed dose estimate, Mean, Heart Wall (healthy adults; [3]): 0.048 mSv/MBq and 4.8E−02 mSv/MBq
- absorbed dose estimate, Mean, Kidneys (healthy adults; [3]): 0.066 mSv/MBq and 6.6E−02 mSv/MBq
- absorbed dose estimate, Mean, LLI Wall (healthy adults; [3]): 1.2E−02 mSv/MBq
- absorbed dose estimate, Mean, Liver (healthy adults; [3]): 3.9E−02 mSv/MBq
- absorbed dose estimate, Mean, Lungs (healthy adults; [3]): 1.1E−02 mSv/MBq
- absorbed dose estimate, Mean, Muscle (healthy adults; [3]): 1.0E−02 mSv/MBq
- absorbed dose estimate, Mean, Osteogenic Cells (healthy adults; [3]): 1.9E−02 mSv/MBq
- absorbed dose estimate, Mean, Ovaries (healthy adults; [3]): 1.2E−02 mSv/MBq
- absorbed dose estimate, Mean, Pancreas (healthy adults; [3]): 1.6E−02 mSv/MBq
- absorbed dose estimate, Mean, Red Marrow (healthy adults; [3]): 1.6E−02 mSv/MBq
- absorbed dose estimate, Mean, Salivary (healthy adults; [3]): 3.5E−02 mSv/MBq
- absorbed dose estimate, Mean, Skin (healthy adults; [3]): 7.9E−03 mSv/MBq
- absorbed dose estimate, Mean, Small Intestine (healthy adults; [3]): 1.3E−02 mSv/MBq
- absorbed dose estimate, Mean, Spleen (healthy adults; [3]): 1.6E−02 mSv/MBq
- absorbed dose estimate, Mean, Stomach Wall (healthy adults; [3]): 4.0E−02 mSv/MBq
- absorbed dose estimate, Mean, Testes (healthy adults; [3]): 9.2E−03 mSv/MBq
- absorbed dose estimate, Mean, Thymus (healthy adults; [3]): 1.1E−02 mSv/MBq
- absorbed dose estimate, Mean, Thyroid (healthy adults; [3]): 3.2E−02 mSv/MBq
- absorbed dose estimate, Mean, Total Body (healthy adults; [3]): 1.2E−02 mSv/MBq
- absorbed dose estimate, Mean, ULI Wall (healthy adults; [3]): 1.3E−02 mSv/MBq
- absorbed dose estimate, Mean, Urinary Bladder Wall (healthy adults; [3]): 2.3E−02 mSv/MBq
- absorbed dose estimate, Mean, Uterus (healthy adults; [3]): 1.2E−02 mSv/MBq
- maximum injected dose without exceeding 1 rem ED (healthy adults; in vivo): 14 mCi
- maximum injected dose without exceeding 10 mSv (1 rem) ED (healthy adults; in vivo): 521 MBq
- maximum injected dose without exceeding 50 mSv to the critical organ (healthy adults; kidneys): 770 MBq
- SDS [1]: 12.3 ± 7
- SRS [1]: 3.8 ± 6.6
- SSS [1]: 16.1 ± 7.8
- concentration (dose) inducing transit clinical signs (rapid and labored breathing, decreased activity, hunched posture, urination) (normal rats and dogs): ≥ 0.2 mg/kg
- dose at which these clinical signs were not observed (normal rats and dogs): ≤ 0.1 mg/kg
- Diagnostic certainty of interpretation (% of cases with definitely abnormal/normal interpretation) ([2]; in vivo): 92.0%
- area under the ROC curve for overall diagnosis of CAD ([2]; in vivo): 0.79±0.05
- % of images rated as either excellent or good ([2]; rest images): 96.8%
- % of images rated as either excellent or good ([2]; stress images): 99.2%
